According to US20240390340A1 (INCYTE CORPORATION, priority 2023, published 2024):

Columns and labels:
[1] = test system: Caco-2 cells; experiment: Caco2 assay (Papp A-B); format: in vitro ADME; conditions: test compound 50 μM, 120 min, 37° C.
Experimental: Caco-2 cells are grown at 37° C. in an atmosphere of 5% CO2 in DMEM growth medium supplemented with 10% (v/v) fetal bovine serum, 1% (v/v) nonessential amino acids, penicillin (100 U/mL), and streptomycin (100 μg/mL). Confluent cell monolayers are subcultured every 7 days or 4 days for Caco-2 by treatment with 0.05% trypsin containing […]. Caco-2 cells are seeded in 96-well Transwell plates. The seeding density for Caco-2 cells is 14,000 cells/well. DMEM growth medium is replaced every other day after seeding. Cell monolayers are used for transport assays between 22 and 25 days for Caco-2 cells.
Cell culture medium is removed and replaced with HBSS. To measure the TEER, the HBSS is added into the donor compartment (apical side) and receiver compartment (basolateral side). The TEER is measured by using a REMS Autosampler to ensure the integrity of the cell monolayers. Caco-2 cell monolayers with TEER values 300 Ω·cm^2 are used for transport experiments. To determine the Papp in the absorptive direction (A-B), solution of test compound (50 μM) in HBSS is added to the donor compartment (apical side), while HBSS solution with 4% BSA is added to the receiver compartment (basolateral side). The apical volume was 0.075 mL, and the basolateral volume is 0.25 mL. The incubation period is 120 min. at 37° C. in an atmosphere of 5% CO2. At the end of the incubation period, samples from the donor and receiver sides are removed and an equal volume of MeCN is added for protein precipitation. The supernatants are collected after centrifugation (3000 rpm, Allegra X-14R Centrifuge from Beckman Coulter, Indianapolis, IN) for LCMS analysis. The permeability value is determined according to the equation:
[formula] • where the flux rate (F, mass/time) is calculated from the slope of cumulative amounts of compound of interest on the receiver side, SA is the surface area of the cell membrane, VD is the donor volume, and MD is the initial amount of the solution in the donor chamber.
The symbol “+” indicates a Caco-2 value of ≤0.5, “++” indicates a Caco-2 value of >0.5 but ≤1; and “+++” indicates a Caco-2 value of >1. “NA” indicates IC50 not available.

[2] = target: KRAS G12V (Homo sapiens, UniProt P01116, G12V); experiment: GDP-GTP exchange assay (bodipy-GDP/GppNHp, SOS1), KRAS G12V; format: biochemical; conditions: Table H, column G12V; for compounds isolated as several atropisomers/diastereoisomers the value for the most potent isomer is quoted; read-out: KRAS G12V exchange assay IC50
[3] = target: KRAS G12D (Homo sapiens, UniProt P01116, G12D); experiment: GDP-GTP exchange assay (bodipy-GDP/GppNHp, SOS1), KRAS G12D; format: biochemical; conditions: Table H, column G12D; for compounds isolated as several atropisomers/diastereoisomers the value for the most potent isomer is quoted; read-out: KRAS G12D exchange assay IC50
Sequence of KRAS G12D (P01116 1-188 isoform P01116-2 G12D): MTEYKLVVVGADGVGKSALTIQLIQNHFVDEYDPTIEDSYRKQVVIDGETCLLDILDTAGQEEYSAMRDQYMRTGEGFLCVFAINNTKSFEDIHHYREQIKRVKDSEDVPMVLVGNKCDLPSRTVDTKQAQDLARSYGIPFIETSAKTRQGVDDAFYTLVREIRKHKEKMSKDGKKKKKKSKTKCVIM

Sequence of KRAS G12V (P01116 1-188 isoform P01116-2 G12V): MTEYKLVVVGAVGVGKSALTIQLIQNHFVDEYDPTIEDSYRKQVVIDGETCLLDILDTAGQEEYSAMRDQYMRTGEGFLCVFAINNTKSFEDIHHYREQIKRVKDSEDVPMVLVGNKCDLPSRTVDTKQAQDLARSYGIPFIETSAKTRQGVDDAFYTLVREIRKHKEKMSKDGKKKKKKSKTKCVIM

With `Cc1nc2c(F)c(-c3cccc(Cl)c3Cl)c(CCC#N)cc2c2c1cc([C@H]1C[C@H](Oc3cccnc3F)CN1C(=O)C1CC1)n2[C@H]1[C@H]2CN[C@@H]1C2` [Example 39, 3-(1-((1R,4R,5S)-2-Azabicyclo[2.1.1]hexan-5-yl)-2-((2R,4S)-1-(cyclopropanecarbonyl)-4-((2-fluoropyridin-3-yl)oxy)pyrrolidin-2-yl)-7-(2,3-dichlorophenyl)-6-fluoro-4-methyl-1H-pyrrolo[3,2-c]quinolin-8-yl)propanenitrile] the Caco-2 [1] was “++ (a Caco-2 value of >0.5 but ≤1)”, the IC50 [2] was no more than 100 nM and the IC50 [3] was no more than 100 nM.

For `Cc1nc2c(F)c(-c3cccc(Cl)c3Cl)c(CCC#N)cc2c2c1cc([C@H]1C[C@H](Oc3ccnc(OC(F)F)c3)CN1C(=O)C1CC1)n2[C@H]1[C@H]2CN[C@@H]1C2` [Example 40, 3-(1-((1R,4R,5S)-2-Azabicyclo[2.1.1]hexan-5-yl)-2-((2R,4S)-1-(cyclopropanecarbonyl)-4-((2-(difluoromethoxy)pyridin-4-yl)oxy)pyrrolidin-2-yl)-7-(2,3-dichlorophenyl)-6-fluoro-4-methyl-1H-pyrrolo[3,2-c]quinolin-8-yl)propanenitrile], the Caco-2 [1] was “+ (a Caco-2 value of ≤0.5)”, the IC50 [2] was no more than 100 nM and the IC50 [3] was no more than 100 nM.

For `COc1cc(O[C@H]2C[C@H](c3cc4c(C)nc5c(F)c(-c6cccc(Cl)c6Cl)c(CCC#N)cc5c4n3[C@H]3[C@H]4CN[C@@H]3C4)N(C(=O)C3CC3)[C@@H]2C)ccn1` [Example 41, 3-(1-((1R,4R,5S)-2-Azabicyclo[2.1.1]hexan-5-yl)-2-((2R,4S,5R)-1-(cyclopropanecarbonyl)-4-((2-methoxypyridin-4-yl)oxy)-5-methylpyrrolidin-2-yl)-7-(2,3-dichlorophenyl)-6-fluoro-4-methyl-1H-pyrrolo[3,2-c]quinolin-8-yl)propanenitrile], the Caco-2 [1] was “++ (a Caco-2 value of >0.5 but ≤1)”, the IC50 [2] was no more than 100 nM and the IC50 [3] was no more than 100 nM.

For `COc1nccc(O[C@H]2C[C@H](c3cc4c(C)nc5c(F)c(-c6cccc(Cl)c6Cl)c(CCC#N)cc5c4n3[C@H]3[C@H]4CN[C@@H]3C4)N(C(=O)C3CC3)C2)n1` [Example 42, 3-(1-((1R,4R,5S)-2-Azabicyclo[2.1.1]hexan-5-yl)-2-((2R,4S)-1-(cyclopropanecarbonyl)-4-((2-methoxypyrimidin-4-yl)oxy)pyrrolidin-2-yl)-7-(2,3-dichlorophenyl)-6-fluoro-4-methyl-1H-pyrrolo[3,2-c]quinolin-8-yl)propanenitrile], the Caco-2 [1] was “+ (a Caco-2 value of ≤0.5)”, the IC50 [2] was no more than 100 nM and the IC50 [3] was no more than 100 nM.

`COc1cc(O[C@H]2C[C@H](c3cc4c(C)nc5c(F)c(-c6cccc(Cl)c6Cl)c(CCC#N)cc5c4n3[C@H]3[C@H]4CN[C@@H]3C4)N(C(=O)C3CC3)C2)c(F)cn1` [Example 43, 3-(1-((1R,4R,5S)-2-Azabicyclo[2.1.1]hexan-5-yl)-2-((2R,4S)-1-(cyclopropanecarbonyl)-4-((5-fluoro-2-methoxypyridin-4-yl)oxy)pyrrolidin-2-yl)-7-(2,3-dichlorophenyl)-6-fluoro-4-methyl-1H-pyrrolo[3,2-c]quinolin-8-yl)propanenitrile] was tested, and the Caco-2 [1] was “+ (a Caco-2 value of ≤0.5)”, the IC50 [2] was no more than 100 nM and the IC50 [3] was no more than 100 nM.

With `COc1cccc(O[C@H]2C[C@H](c3cc4c(C)nc5c(F)c(-c6cccc(Cl)c6Cl)c(CCC#N)cc5c4n3[C@H]3[C@H]4CN[C@@H]3C4)N(C(=O)C3CC3)C2)c1` [Example 44, 3-(1-((1R,4R,5S)-2-Azabicyclo[2.1.1]hexan-5-yl)-2-((2R,4S)-1-(cyclopropanecarbonyl)-4-(3-methoxyphenoxy)pyrrolidin-2-yl)-7-(2,3-dichlorophenyl)-6-fluoro-4-methyl-1H-pyrrolo[3,2-c]quinolin-8-yl)propanenitrile] the Caco-2 [1] was “+ (a Caco-2 value of ≤0.5)”, the IC50 [2] was no more than 100 nM and the IC50 [3] was no more than 100 nM.
